# According to patent US9499572B2, “Phosphatidylalkanols and compositions thereof” (Pethmark AB, priority 2013, dated 2016):
# Counter-ions that a name gives are not always drawn.
# Assay: Estimated concentration in DMSO-d6 after shaking an excess at 38° C., cooling to 22° C. and decantation (1H-NMR integrals)
# Format: physicochemical
# Conditions: organic solvent or mixture, thermodynamic from solid, Composition Example 13, excess shaken at 38° C. for 15 min, cooled to 22° C., decanted, no additive, read-out: concentration in the solution (limit of solubility)
# Description: A mixture of PEth-16:0/18:1-NMe3 (15 mg), dimethyl sulfone (0.4 mg) and DMSO-d6 (0.75 ml) was shaken at 38° C. for 15 min. The mixture was then allowed to reach ambient temperature (22° C.) and kept at that temperature for 1 h. The solution was then separated from a glassy precipitate by decantation and transferred to an NMR-tube. The concentration of PEth-16:0/18:1-NMe3 in the solution was estimated to be about 3 mg/ml by comparison of ^1H-NMR integrals in the ^1H-NMR spectrum (FIG. 7) of signals from PEth-16:0/18:1-NMe3 with the signal of dimethyl sulfone.
smiles,measurement,value
"CCCCCCCC/C=C\CCCCCCCC(=O)O[C@H](COC(=O)CCCCCCCCCCCCCCC)COP(=O)(O)OCC [PEth-16:0/18:1-NMe3, 1-Palmitoyl-2-oleoyl-3-ethoxyhydroxyphosphinyl-sn-glycerol trimethylammonium salt]",solubility at 15 min,~3000 µg/mL
